# Measured values as given in the Kinase Knowledgebase extract (Sharma et al. 2016).
# Target: PIK3CD (Human) (UniProt O00329)
# Experiment: Inhibition of PIK3CD Kinase Activity
# Settings: not given
# Chain of PIK3CD (Human) (O00329 whole entry, looked up): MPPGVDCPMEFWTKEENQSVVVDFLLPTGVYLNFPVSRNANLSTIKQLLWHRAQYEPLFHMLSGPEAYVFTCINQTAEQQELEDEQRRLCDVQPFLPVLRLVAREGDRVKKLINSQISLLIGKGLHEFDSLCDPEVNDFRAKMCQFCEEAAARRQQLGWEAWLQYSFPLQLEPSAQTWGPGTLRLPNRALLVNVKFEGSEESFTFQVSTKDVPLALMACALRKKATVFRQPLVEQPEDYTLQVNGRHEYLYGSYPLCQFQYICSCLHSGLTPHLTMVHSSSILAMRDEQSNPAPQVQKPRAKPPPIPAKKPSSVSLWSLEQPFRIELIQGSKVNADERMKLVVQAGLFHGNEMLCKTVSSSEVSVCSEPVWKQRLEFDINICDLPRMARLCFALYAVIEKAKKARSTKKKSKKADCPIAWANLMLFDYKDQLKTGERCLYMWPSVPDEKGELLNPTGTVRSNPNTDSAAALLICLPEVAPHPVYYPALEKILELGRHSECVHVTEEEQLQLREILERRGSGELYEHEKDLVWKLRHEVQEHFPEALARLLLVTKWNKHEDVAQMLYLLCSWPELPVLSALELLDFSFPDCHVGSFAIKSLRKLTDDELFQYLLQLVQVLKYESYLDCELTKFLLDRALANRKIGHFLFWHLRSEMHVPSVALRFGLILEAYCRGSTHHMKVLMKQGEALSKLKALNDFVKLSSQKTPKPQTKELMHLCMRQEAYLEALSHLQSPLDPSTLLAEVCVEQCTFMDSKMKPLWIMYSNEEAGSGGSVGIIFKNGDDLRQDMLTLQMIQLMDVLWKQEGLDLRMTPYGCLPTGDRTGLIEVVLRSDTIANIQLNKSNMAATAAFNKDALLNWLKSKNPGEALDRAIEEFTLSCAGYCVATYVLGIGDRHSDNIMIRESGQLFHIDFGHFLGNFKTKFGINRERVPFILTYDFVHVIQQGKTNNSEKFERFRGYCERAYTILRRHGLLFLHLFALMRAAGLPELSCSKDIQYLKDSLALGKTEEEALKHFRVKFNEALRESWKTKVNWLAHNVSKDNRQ
row,IC50,SMILES
1,20 µM,N=C1NC(=O)/C(=C/c2ccc3c(c2)OCO3)S1
2,< 0.1 µM,CN1CCC(c2ccccc2CC(C)(C)Nc2nc(N3CCOCC3)nc(-n3c(C(F)F)nc4ccccc43)n2)C1 (centres undefined)
3,20 µM,O=C1NC(=O)/C(=C/c2ccc3c(c2)OCCO3)S1
4,20 µM,O=C1NC(=S)S/C1=C\c1ccc2c(c1)OCO2
5,0.071 µM,Fc1ccc(Cl)c(-c2nc3c(Cl)cccc3cc2CNc2ncnc3[nH]cnc23)c1
6,0.027 µM,Cc1ccccc1-c1nc2c(C)cccc2cc1COc1ncnc2[nH]cnc12
7,20 µM,O=C1NC(=O)/C(=C/c2ccc3c(c2)NCCO3)S1
8,1.02 µM,O=c1cc(N2CCOCC2)oc2c(-c3ccccc3)cccc12
9,0.008 µM,C[C@H](Nc1ncnc2[nH]cnc12)c1cc2cccc(Cl)c2nc1-c1cc(F)ccc1Cl

# Target: PIK3CA (human) (UniProt P42336)
# Sequence (P42336 whole entry, looked up): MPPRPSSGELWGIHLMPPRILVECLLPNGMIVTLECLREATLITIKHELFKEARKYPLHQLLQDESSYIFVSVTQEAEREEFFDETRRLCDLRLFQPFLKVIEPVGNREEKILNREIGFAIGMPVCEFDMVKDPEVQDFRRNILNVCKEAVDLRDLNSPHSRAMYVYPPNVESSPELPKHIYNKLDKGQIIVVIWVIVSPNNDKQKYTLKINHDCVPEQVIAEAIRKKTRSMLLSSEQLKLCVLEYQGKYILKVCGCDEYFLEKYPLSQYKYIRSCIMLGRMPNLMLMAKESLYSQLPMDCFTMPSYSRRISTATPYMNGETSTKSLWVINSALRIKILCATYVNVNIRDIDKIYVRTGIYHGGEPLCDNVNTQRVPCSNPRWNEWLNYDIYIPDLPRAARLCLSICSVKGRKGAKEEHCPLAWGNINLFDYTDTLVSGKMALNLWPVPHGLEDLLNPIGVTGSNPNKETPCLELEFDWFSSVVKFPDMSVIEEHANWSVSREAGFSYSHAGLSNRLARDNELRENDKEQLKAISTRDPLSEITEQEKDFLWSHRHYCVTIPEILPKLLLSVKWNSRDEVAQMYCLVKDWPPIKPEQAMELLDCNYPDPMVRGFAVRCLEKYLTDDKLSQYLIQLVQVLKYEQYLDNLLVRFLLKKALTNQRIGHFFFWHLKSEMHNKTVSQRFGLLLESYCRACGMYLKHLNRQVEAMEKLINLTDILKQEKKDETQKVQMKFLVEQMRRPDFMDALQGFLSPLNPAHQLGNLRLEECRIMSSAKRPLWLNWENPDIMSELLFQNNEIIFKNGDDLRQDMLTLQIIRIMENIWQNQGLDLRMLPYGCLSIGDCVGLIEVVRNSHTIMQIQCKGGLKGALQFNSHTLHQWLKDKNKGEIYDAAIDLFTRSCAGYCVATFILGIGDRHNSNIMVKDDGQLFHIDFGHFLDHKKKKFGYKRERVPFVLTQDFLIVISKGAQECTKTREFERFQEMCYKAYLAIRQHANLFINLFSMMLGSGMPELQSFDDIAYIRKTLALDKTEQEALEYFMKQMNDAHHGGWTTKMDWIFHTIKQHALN
# Experiment: Inhibition of PIK3CA Kinase Activity
# Settings: not given
row,IC50,SMILES
1,20 µM,N=C1NC(=O)/C(=C/c2ccc3c(c2)OCO3)S1

# Target: ROCK2 (human) (UniProt O75116)
# Sequence (O75116 whole entry, looked up): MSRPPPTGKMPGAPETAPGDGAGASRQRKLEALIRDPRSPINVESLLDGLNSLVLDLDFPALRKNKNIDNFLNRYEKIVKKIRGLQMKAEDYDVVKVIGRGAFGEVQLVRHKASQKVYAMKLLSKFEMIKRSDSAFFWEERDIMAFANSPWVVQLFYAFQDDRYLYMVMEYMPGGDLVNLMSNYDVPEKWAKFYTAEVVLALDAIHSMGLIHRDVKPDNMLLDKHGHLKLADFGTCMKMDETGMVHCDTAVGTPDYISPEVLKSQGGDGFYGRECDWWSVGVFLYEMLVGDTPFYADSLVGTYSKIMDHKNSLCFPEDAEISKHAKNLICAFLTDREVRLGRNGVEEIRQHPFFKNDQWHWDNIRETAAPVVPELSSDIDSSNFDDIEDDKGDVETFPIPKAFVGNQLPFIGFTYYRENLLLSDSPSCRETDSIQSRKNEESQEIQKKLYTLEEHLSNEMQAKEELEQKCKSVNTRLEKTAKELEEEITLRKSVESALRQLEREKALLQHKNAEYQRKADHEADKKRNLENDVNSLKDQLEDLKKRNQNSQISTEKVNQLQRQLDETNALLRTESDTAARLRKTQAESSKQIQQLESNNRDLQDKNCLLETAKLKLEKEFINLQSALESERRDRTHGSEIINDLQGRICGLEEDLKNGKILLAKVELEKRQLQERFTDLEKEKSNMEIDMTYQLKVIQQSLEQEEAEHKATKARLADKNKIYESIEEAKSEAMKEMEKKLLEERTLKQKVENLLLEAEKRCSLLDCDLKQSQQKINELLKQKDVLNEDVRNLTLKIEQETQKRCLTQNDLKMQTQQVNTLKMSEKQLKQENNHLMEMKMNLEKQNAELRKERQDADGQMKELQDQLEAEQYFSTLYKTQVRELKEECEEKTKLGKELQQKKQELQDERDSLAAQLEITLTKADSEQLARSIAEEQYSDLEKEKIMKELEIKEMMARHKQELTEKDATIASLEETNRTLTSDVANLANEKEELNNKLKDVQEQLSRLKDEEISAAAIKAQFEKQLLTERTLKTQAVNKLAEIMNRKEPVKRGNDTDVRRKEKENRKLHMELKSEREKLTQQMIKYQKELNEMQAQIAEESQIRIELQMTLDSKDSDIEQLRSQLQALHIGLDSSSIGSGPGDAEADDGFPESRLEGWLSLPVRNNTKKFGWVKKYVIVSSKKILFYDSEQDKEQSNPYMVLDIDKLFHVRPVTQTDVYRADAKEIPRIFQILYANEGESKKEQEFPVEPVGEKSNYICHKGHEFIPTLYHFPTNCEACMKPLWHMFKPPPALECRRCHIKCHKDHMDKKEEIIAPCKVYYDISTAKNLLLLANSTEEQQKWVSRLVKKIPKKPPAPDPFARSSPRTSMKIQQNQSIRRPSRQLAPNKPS
# Experiment: Enzyme Assay
# Settings: not given
SMILES,IC50,Ki
Oc1ccc(-c2nc(-c3ccc(F)cc3)c(-c3ccncc3)[nH]2)cc1,–,3.98 µM
CNC(=O)C[C@@H](NC(=O)c1ccc(-c2cn[nH]c2)c(C)c1)c1ccccc1,0.0217 µM,–

# More lines, now with the values ahead:
IC50,Ki,SMILES
0.0497 µM,–,COc1cc(C(=O)NCc2cccc(Cl)c2)ccc1-c1cn[nH]c1
0.0026 µM,–,CC(C)COC(=O)c1cccc(NC(=O)c2cccc(-c3cc(C(=O)Nc4ccncc4F)ccc3CN)c2)c1
0.00493 µM,–,COc1cc(C(=O)NCc2ccc(Cl)cc2)ccc1-c1cn[nH]c1
< 0.001 µM,–,COc1cccc(CN(C)C(=O)Nc2ccc(-c3cn[nH]c3)cc2OCCN2CCCC2)c1
0.001 µM,–,COc1cccc([C@@H](C)NC(=O)c2cc3ccc(-c4cn[nH]c4)cc3[nH]2)c1
< 0.1 µM,–,COCCC(=O)c1ccc(C(=O)Nc2cccc(CN3CCC(Nc4cccc5cnccc45)CC3)c2)cc1
< 0.1 µM,–,C.COC(=O)c1ccc(C(=O)Nc2cccc(CNC3CCC(Nc4cccc5cnccc45)CC3)c2)cc1 (centres undefined)
0.025 µM,–,Nc1cccc(CN2CC[C@@H](Nc3cccc4cnccc34)C2)c1
24.3 µM,–,COc1ccc2c(c1)CN(c1nc3c(c(Nc4ccc5[nH]ncc5c4)n1)CNC3)C2

# Same assay, conditions: concentration not given here
row,SMILES,activity
1,O=C1NC(=O)C(c2c[nH]c3ccccc23)=C1c1c[nH]c2ccccc12,100%
2,CN[C@@H]1C[C@H]2O[C@@](C)([C@@H]1OC)n1c3ccccc3c3c4c(c5c6ccccc6n2c5c31)C(=O)N[C@@H]4O,22%
3,O=S(=O)(NCCNC/C=C/c1ccc(Br)cc1)c1cccc2cnccc12,0%
4,CO[C@H]1C[C@@H]2CC[C@@H](C)[C@@](O)(O2)C(=O)C(=O)N2CCCC[C@H]2C(=O)O[C@H]([C@H](C)C[C@@H]2CC[C@@H](O)[C@H](OC)C2)CC(=O)[C@H](C)C=C(C)[C@@H](O)[C@@H](OC)C(=O)[C@H](C)C[C@H](C)C=CC=CC=C1C,106%

# Target: MAPK14 (human) (UniProt Q16539)
# Sequence (Q16539 whole entry, looked up): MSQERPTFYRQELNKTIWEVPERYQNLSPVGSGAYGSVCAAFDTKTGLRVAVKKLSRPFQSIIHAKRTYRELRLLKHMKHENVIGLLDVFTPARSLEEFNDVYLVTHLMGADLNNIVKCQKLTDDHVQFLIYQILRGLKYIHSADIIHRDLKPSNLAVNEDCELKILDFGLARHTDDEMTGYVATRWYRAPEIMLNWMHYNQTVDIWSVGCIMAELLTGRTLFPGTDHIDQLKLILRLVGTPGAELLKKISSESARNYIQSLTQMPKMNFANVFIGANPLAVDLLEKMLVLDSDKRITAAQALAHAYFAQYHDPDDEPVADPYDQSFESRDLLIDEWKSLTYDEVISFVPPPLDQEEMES
# Experiment: Enzyme Assay
# Settings: concentration not given here
row,SMILES,activity
1,CN[C@@H]1C[C@H]2O[C@@](C)([C@@H]1OC)n1c3ccccc3c3c4c(c5c6ccccc6n2c5c31)C(=O)N[C@@H]4O,92%
2,CO[C@H]1C[C@@H]2CC[C@@H](C)[C@@](O)(O2)C(=O)C(=O)N2CCCC[C@H]2C(=O)O[C@H]([C@H](C)C[C@@H]2CC[C@@H](O)[C@H](OC)C2)CC(=O)[C@H](C)C=C(C)[C@@H](O)[C@@H](OC)C(=O)[C@H](C)C[C@H](C)C=CC=CC=C1C,93%

# Target: PIK3CA (human) (UniProt P42336)
# Experiment: Enzyme Assay
# Settings: not given
SMILES,IC50,Ki
COc1ncc(N2CCc3ncnc(N[C@H]4CCN(C(=O)[C@H]5CC[C@@H](O)CC5)C4)c3C2)cc1C(F)(F)F,0.118 µM,–
CS(=O)(=O)N1CCN(Cc2csc3c(-c4cnc(N)nc4)nc(N4CCOCC4)nc23)CC1,0.0095 µM,–
COc1ncc(N2CCc3ncnc(N[C@H]4CCN(C(=O)[C@H]5CC[C@H](O)CC5)C4)c3C2)cc1C(F)(F)F,0.106 µM,–

# Second part, the molecule after the results:
IC50,Ki,SMILES
–,> 10 µM,CCNC(=O)Nc1ccc(-c2nc(N3CCOC[C@@H]3CC)c3c(ncn3C)n2)cc1
–,6.4 µM,CCNC(=O)Nc1ccc(-c2nc(N3CCCOCC3)c3c(ncn3C)n2)cc1
–,5.8 µM,CCNC(=O)Nc1ccc(-c2nc(N3CCOC[C@H]3C)c3c(ncn3C)n2)cc1

# Target: PIK3CD (Human) (UniProt O00329)
# Experiment: Enzyme Assay
# Settings: not given
SMILES,IC50,Ki
COc1ncc(N2CCc3ncnc(N[C@H]4CCN(C(=O)[C@H]5CC[C@@H](OC)CC5)C4)c3C2)cc1C(F)(F)F,0.004 µM,–
Nc1ncnc2c1c(-c1cc3cccc(O)c3[nH]1)nn2C1CCOCC1,0.1 to 0.5 µM,–
COc1ncc(N2CCc3ncnc(N[C@H]4CCN(C(=O)[C@H]5CC[C@@H](O)CC5)C4)c3C2)cc1C(F)(F)F,0.004 µM,–
CS(=O)(=O)N1CCN(Cc2csc3c(-c4cnc(N)nc4)nc(N4CCOCC4)nc23)CC1,0.018 µM,–
Cc1n[nH]c2cc(-c3nn(Cc4oc5ccccc5c(=O)c4-c4cccc(F)c4)c4ncnc(N)c34)ccc12,< 0.25 µM,–
Cc1c(-n2ccccc2=O)nc2cc(F)cc(F)c2c1N1CC2(CCOCC2)c2ncc(N3CCOCC3)cc21,–,0.00464 µM
COc1ncc(N2CCc3ncnc(N[C@H]4CCN(C(=O)[C@H]5CC[C@H](O)CC5)C4)c3C2)cc1C(F)(F)F,0.007 µM,–
Cc1noc(-c2c(N)ncnc2NC(C)c2cc3cccc(Cl)c3nc2-c2ccccn2)n1 (centres undefined),0.007 µM,–
Cc1nnc(-c2c(N)ncnc2NC(C)c2nc3cccc(C)n3c(=O)c2-c2ccccc2)o1 (centres undefined),0.443 µM,–
Nc1ccc(-c2nc(N3CCOCC3)c3ncccc3n2)cc1,1.1 µM,–
CC(C)Oc1ccc(-c2nn(C(C)c3oc4ccccc4c(=O)c3-c3cccc(F)c3)c3ncnc(N)c23)cc1Cl (centres undefined),< 0.25 µM,–
CC[C@H](Nc1ncnc(N)c1-c1nc(C)no1)c1cc2cccc(C)c2c(=O)n1-c1ccccc1,0.011 µM,–
CC(c1oc2ccccc2c(=O)c1-c1cccc(F)c1)n1nc(-c2ccc(O)cc2)c2c(N)ncnc21 (centres undefined),< 0.25 µM,–
Cc1nnc(-c2c(N)ncnc2NC(C)c2cc3cccc(Cl)c3nc2-c2ccccn2)o1 (centres undefined),0.081 µM,–
COc1ncc(N2CCc3ncnc(N[C@H]4CCN(C(=O)[C@H]5CC[C@H](OC)CC5)C4)c3C2)cc1C(F)(F)F,0.004 µM,–

# Second part, the molecule after the results:
IC50,Ki,SMILES
0.037 µM,–,O=C(Nc1ccc(CO)cc1)Nc1ccc(-c2nc(N3CCOCC3)c3ncccc3n2)cc1
100 µM,–,COCCOn1ccc(-c2ccc3nc(N)sc3c2)cc1=O
–,> 10 µM,CCNC(=O)Nc1ccc(-c2nc(N3CCOC[C@@H]3CC)c3c(ncn3C)n2)cc1
–,7.3 µM,CCNC(=O)Nc1ccc(-c2nc(N3CCCOCC3)c3c(ncn3C)n2)cc1
–,4 µM,CCNC(=O)Nc1ccc(-c2nc(N3CCOC[C@H]3C)c3c(ncn3C)n2)cc1
0.268 µM,–,O=c1cc(N2CCOCC2)oc2c(-c3ccccc3)cccc12
